In publication PMC11091072, “Targeting bacterial nickel transport with aspergillomarasmine A suppresses virulence-associated Ni-dependent enzymes” (Nature Communications, 2024):
Where “and” joins values, the source holds several entries; their conditions need not be identical. Equal values may be shown once. Read-outs that look alike come from different tables or passages of the source.

Key:
[1] = tested on: K. pneumoniae; type: cell-based, Klebsiella pneumoniae; conditions: 200 μM, 24 h exposure
[2] = tested on: S. aureus; type: cell-based, Staphylococcus aureus; conditions: 200 μM, 24 h
[3] = tested on: NikA; type: binding, Klebsiella pneumoniae; conditions: 100 μM
[4] = target: NikA (Klebsiella pneumoniae, UniProt A6TFA3); type: binding
[5] = tested on: S. aureus urease activity (whole cell); type: cell-based, Staphylococcus aureus; conditions: S. aureus, artificial urine, 24 h
[6] = tested on: HEK293 cells; test: HEK293 cytotoxicity assay (Cell Titer Glo 2.0)
[7] = tested on: K. pneumoniae; type: cell-based, Klebsiella pneumoniae; conditions: Chelex-treated nitrogen-limited medium
[8] = pH 7.5, 2:1 complex, cited from earlier work
[9] = tested on: K. pneumoniae urease activity (Ni2+ uptake); test: Competition of Zn-AMA with Ni-(L-His)2 (urease-dependent pH); type: cell-based, Klebsiella pneumoniae; conditions: Zn-AMA 0 μM

Chain of NikA (Klebsiella pneumoniae, UniProt A6TFA3) (A6TFA3 entry or part of it): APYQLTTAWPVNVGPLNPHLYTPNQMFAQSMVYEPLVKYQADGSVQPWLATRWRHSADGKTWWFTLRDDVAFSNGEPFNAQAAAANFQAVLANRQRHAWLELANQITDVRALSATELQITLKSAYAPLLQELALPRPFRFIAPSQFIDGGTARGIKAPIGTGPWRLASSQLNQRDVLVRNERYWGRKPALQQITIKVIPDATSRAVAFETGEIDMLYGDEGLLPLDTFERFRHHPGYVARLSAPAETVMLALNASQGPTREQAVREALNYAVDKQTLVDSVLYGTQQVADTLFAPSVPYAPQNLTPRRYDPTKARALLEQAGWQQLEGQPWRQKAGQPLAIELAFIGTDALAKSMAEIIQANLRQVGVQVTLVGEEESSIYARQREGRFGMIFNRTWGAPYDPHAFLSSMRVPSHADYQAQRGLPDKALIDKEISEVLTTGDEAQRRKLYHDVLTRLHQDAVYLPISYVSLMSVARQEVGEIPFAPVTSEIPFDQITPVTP

SMILES: N[C@@H](CN[C@@H](CN[C@@H](CC(=O)O)C(=O)O)C(=O)O)C(=O)O.[Co+2] [Co-AMA]
- bacterial viability (spot dilutions) [1]: do not affect bacterial viability
- bacterial viability (spot dilutions) [2]: not lethal to bacteria
- effect on stability of recombinant NikA [3]: increase NikA’s stability
- n (stoichiometry, ITC) ([4]; 37 °C, pH 7.5): 1.06
- ∆G ([4]; 37 °C, pH 7.5): -6.9 kcal/mol
- ∆H ([4]; 37 °C, pH 7.5): -10.5 kcal/mol
- −T∆S ([4]; 37 °C, pH 7.5): 3.6 kcal/mol
- Kd ([4]; read-out: KD for NikA (ITC), 25 mM Tris-HCl, 150 mM NaCl, 0.1% Triton X-100, pH 7.5, 37 °C): 13 ± 0.4 µM
- effect on urease activity [5]: inhibited urease activity similarly
- HEK 293T cytotoxicity assay raw signal ([6]; Co-AMA 0.5 μg/mL): 622984 and 609603 and 578025
- HEK 293T cytotoxicity assay raw signal ([6]; Co-AMA 1 μg/mL): 648007 and 588509 and 584554
- HEK 293T cytotoxicity assay raw signal ([6]; Co-AMA 2 μg/mL): 653814 and 579149 and 584837
- HEK 293T cytotoxicity assay raw signal ([6]; Co-AMA 4 μg/mL): 624260 and 594763 and 611086
- HEK 293T cytotoxicity assay raw signal ([6]; Co-AMA 8 μg/mL): 684397 and 665902 and 598886
- HEK 293T cytotoxicity assay raw signal ([6]; Co-AMA 16 μg/mL): 641409 and 612229 and 581248
- HEK 293T cytotoxicity assay raw signal ([6]; Co-AMA 32 μg/mL): 567905 and 544667 and 548517
- HEK 293T cytotoxicity assay raw signal ([6]; Co-AMA 64 μg/mL): 578062 and 599992 and 521662
- HEK 293T cytotoxicity assay raw signal ([6]; Co-AMA 128 μg/mL): 421336 and 474275 and 462640
- HEK 293T cytotoxicity assay raw signal ([6]; Co-AMA 256 μg/mL): 411884 and 395016 and 434679
- HEK 293T cytotoxicity assay raw signal ([6]; Co-AMA 512 μg/mL): 266726 and 265058 and 263860
- reduction in HEK293 cell viability ([6]; highest test concentration 512 μg/mL, 48 h): 50%

SMILES: N[C@@H](Cc1c[nH]cn1)C(=O)O [L-His, L-histidine, reference compound]
- growth with urea as sole nitrogen source [7]: not viable
- Kd ([8]; read-out: KD1 for Ni^2+): 0.64 µM
- Kd ([8]; read-out: KD2 for Ni^2+): 8.8 µM
- pH of culture (Zn-AMA v.s. L-His) ([9]; L-His 3.12 μM): 8.06 and 8.1
- pH of culture (Zn-AMA v.s. L-His) ([9]; L-His 6.25 μM): 8.07 and 8.1
- pH of culture (Zn-AMA v.s. L-His) ([9]; L-His 12.5 μM): 7.85 and 7.9
